Reference: BindingDB's records for patent US20240287037 (Plexium, 2024)

Molecular target: Protein cereblon (Homo sapiens, UniProt Q96SW2)
Test: Bioluminescence Resonance Energy Transfer (BRET)
Protocol: 2 uL of 10 uM CRBN tracer (diluted 1:5 in Tracer Dilution Buffer) was added to each well. Plates were centrifuged at 320 g for 1 min at room temperature. […] Plates were shaken for 2 minutes on a microplate shaker to mix compounds. Plates were centrifuged at 320 g for 1 min at room temperature, and subsequently incubated for 2 hours at 37 C.After incubation, plates were allowed to cool to room temperature for 15 minutes. […] Plates were read on a CLARIOstar microplate reader (BMG LabTech), measuring at 450 nm (donor emission) and 610 nm (acceptor emission).

Protein cereblon, sequence (Q96SW2 whole entry): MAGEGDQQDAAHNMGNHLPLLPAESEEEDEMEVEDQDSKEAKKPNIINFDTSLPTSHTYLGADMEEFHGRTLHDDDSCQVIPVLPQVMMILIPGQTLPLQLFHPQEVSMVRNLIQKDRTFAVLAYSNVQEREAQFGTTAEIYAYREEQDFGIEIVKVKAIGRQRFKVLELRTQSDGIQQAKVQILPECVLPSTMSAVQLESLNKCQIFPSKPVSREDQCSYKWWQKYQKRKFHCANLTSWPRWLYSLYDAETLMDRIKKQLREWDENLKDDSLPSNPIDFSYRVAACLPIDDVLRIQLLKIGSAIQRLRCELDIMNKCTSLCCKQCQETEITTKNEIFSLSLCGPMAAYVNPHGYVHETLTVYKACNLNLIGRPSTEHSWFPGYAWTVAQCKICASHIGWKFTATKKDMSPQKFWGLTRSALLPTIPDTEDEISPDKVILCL

With `N#CC1(C2CN([C@H]3CCCC[C@@H]3Oc3ccc4c(c3)CN(C3CCC(=O)NC3=O)C4=O)C2)CCC1` (stereo partly specified) [US20240287037, Example 23] the EC50 was 28 nM.
